Measured values as given in ChEMBL document CHEMBL5376003, “Structure-Activity Relationship of FL118 Platform Position 7 Versus Position 9-Derived Compounds and Their Mechanism of Action and Antitumor Activity” (J Med Chem, 2023).
Calls of active or inactive are those of the source. No cut-off for these calls is given here.

Tests used:
HCT-116 [1] = assay: Induction of apoptosis in human HCT-116 cells assessed as downregulation of PPAT gene expression at 10 to 500 nM incubated for 6 to 48 hrs by RNA analysis; assay type: functional, cell-based; conditions: dose 10-500 nM, time 6-48 hrs
A549 = assay: Growth inhibition of human A549 cells incubated for 48 hrs by MTT reagent based ELISA reader analysis; assay type: functional, cell-based; conditions: A549, 48 h
HCT-116 [2] = assay: Induction of apoptosis in human HCT-116 cells assessed as downregulation of PRIM1 mRNA expression at 10 to 500 nM incubated for 6 to 48 hrs by RNA analysis; assay type: functional, cell-based; conditions: dose 10-500 nM, time 6-48 hrs
HCT-116 [3] = assay: Induction of apoptosis in human HCT-116 cells assessed as modulation of DDX17 mRNA expression at 10 to 500 nM incubated for 6 to 48 hrs by RNA analysis; assay type: functional, cell-based; conditions: dose 10-500 nM, time 6-48 hrs
HCT-116 [4] = assay: Induction of apoptosis in human HCT-116 cells assessed as downregulation of BCL2 mRNA expression at 10 to 500 nM incubated for 6 to 48 hrs by RNA analysis; assay type: functional, cell-based; conditions: dose 10-500 nM, time 6-48 hrs
HCT-116 [5] = assay: Induction of apoptosis in human HCT-116 cells assessed as modulation of TOP3A mRNA expression at 10 to 500 nM incubated for 6 to 48 hrs by RNA analysis; assay type: functional, cell-based; conditions: dose 10-500 nM, time 6-48 hrs
HCT-116 [6] = assay: Induction of apoptosis in human HCT-116 cells assessed as downregulation of NUP160 gene expression at 10 to 500 nM incubated for 6 to 48 hrs by RNA analysis; assay type: functional, cell-based; conditions: dose 10-500 nM, time 6-48 hrs
HCT-116 [7] = assay: Induction of apoptosis in human HCT-116 cells assessed as downregulation of NUP93 gene expression at 10 to 500 nM incubated for 6 to 48 hrs by RNA analysis; assay type: functional, cell-based; conditions: dose 10-500 nM, time 6-48 hrs
HCT-116 [8] = assay: Growth inhibition of human HCT-116 cells incubated for 48 hrs by MTT reagent based ELISA reader analysis; assay type: functional, cell-based; conditions: HCT-116, 48 h
HCT-116 [9] = assay: Induction of apoptosis in human HCT-116 cells assessed as downregulation of PRKACB gene expression at 10 to 500 nM incubated for 6 to 48 hrs by RNA analysis; assay type: functional, cell-based; conditions: dose 10-500 nM, time 6-48 hrs
HCT-116 [10] = assay: Induction of apoptosis in human HCT-116 cells assessed as modulation of DDX42 mRNA expression at 10 to 500 nM incubated for 6 to 48 hrs by RNA analysis; assay type: functional, cell-based; conditions: dose 10-500 nM, time 6-48 hrs
HCT-116 [11] = assay: Induction of apoptosis in human HCT-116 cells assessed as increase in intracellular ROS level at 10 to 1000 nM incubated for 4 to 8 hrs by DCFH-DA staining based fluorescence microscopy; assay type: functional, cell-based; conditions: dose 10-1000 nM, time 4-8 hrs
HCT-116 [12] = assay: Induction of apoptosis in human HCT-116 cells assessed as downregulation of ACACA gene expression at 10 to 500 nM incubated for 6 to 48 hrs by RNA analysis; assay type: functional, cell-based; conditions: dose 10-500 nM, time 6-48 hrs
HCT-116 [13] = assay: Induction of apoptosis in human HCT-116 cells assessed as downregulation of DPYD gene expression at 10 to 500 nM incubated for 6 to 48 hrs by RNA analysis; assay type: functional, cell-based; conditions: dose 10-500 nM, time 6-48 hrs
HCT-116 [14] = assay: Induction of apoptosis in human HCT-116 cells assessed as modulation of TOP2B mRNA expression at 10 to 500 nM incubated for 6 to 48 hrs by RNA analysis; assay type: functional, cell-based; conditions: dose 10-500 nM, time 6-48 hrs
HCT-116 [15] = assay: Induction of apoptosis in human HCT-116 cells assessed as upregulation of USP11 mRNA expression at 10 to 500 nM incubated for 6 to 48 hrs by RNA analysis; assay type: functional, cell-based; conditions: dose 10-500 nM, time 6-48 hrs
HCT-116 [16] = assay: Induction of apoptosis in human HCT-116 cells assessed as upregulation of DDX5 mRNA expression at 500 nM incubated for 6 hrs by RNA analysis; assay type: functional, cell-based
HCT-116 [17] = assay: Induction of apoptosis in human HCT-116 cells assessed as downregulation of PPP2CA gene expression at 10 to 500 nM incubated for 6 to 48 hrs by RNA analysis; assay type: functional, cell-based; conditions: dose 10-500 nM, time 6-48 hrs
HCT-116 [18] = assay: Induction of apoptosis in human HCT-116 cells assessed as downregulation of NUP62 gene expression at 10 to 500 nM incubated for 6 to 48 hrs by RNA analysis; assay type: functional, cell-based; conditions: dose 10-500 nM, time 6-48 hrs
HCT-116 [19] = assay: Induction of apoptosis in human HCT-116 cells assessed as increase in intracellular ROS level incubated for 48 hrs by DCFH-DA staining based fluorescence microscopy; assay type: functional, cell-based
HCT-116 [20] = assay: Induction of apoptosis in human HCT-116 cells assessed as downregulation of NUP43 gene expression at 10 to 500 nM incubated for 6 to 48 hrs by RNA analysis; assay type: functional, cell-based; conditions: dose 10-500 nM, time 6-48 hrs
HCT-116 [21] = assay: Induction of apoptosis in human HCT-116 cells assessed as modulation of DDX54 mRNA expression at 10 to 500 nM incubated for 6 to 48 hrs by RNA analysis; assay type: functional, cell-based; conditions: dose 10-500 nM, time 6-48 hrs
HCT-116 [22] = assay: Induction of apoptosis in human HCT-116 cells assessed as downregulation of CTPS1 gene expression at 10 to 500 nM incubated for 6 to 48 hrs by RNA analysis; assay type: functional, cell-based; conditions: dose 10-500 nM, time 6-48 hrs
HCT-116 [23] = assay: Activation of innate immune response in human HCT-116 cells assessed as upregulation of IL-12B gene expression at 10 to 500 nM incubated for 6 to 48 hrs by RNA analysis; assay type: functional, cell-based; conditions: dose 10-500 nM, time 6-48 hrs
HCT-116 [24] = assay: Induction of apoptosis in human HCT-116 cells assessed as downregulation of SLC25A13 gene expression at 10 to 500 nM incubated for 6 to 48 hrs by RNA analysis; assay type: functional, cell-based; conditions: dose 10-500 nM, time 6-48 hrs
HCT-116 [25] = assay: Induction of apoptosis in human HCT-116 cells assessed as downregulation of ATIC gene expression at 10 to 500 nM incubated for 6 to 48 hrs by RNA analysis; assay type: functional, cell-based; conditions: dose 10-500 nM, time 6-48 hrs
HCT-116 [26] = assay: Induction of apoptosis in human HCT-116 cells assessed as modulation of TOP1 mRNA expression at 10 to 500 nM incubated for 6 to 48 hrs by RNA analysis; assay type: functional, cell-based; conditions: dose 10-500 nM, time 6-48 hrs
HCT-116 [27] = assay: Induction of apoptosis in human HCT-116 cells assessed as downregulation of PRKAR2B gene expression at 10 to 500 nM incubated for 6 to 48 hrs by RNA analysis; assay type: functional, cell-based; conditions: dose 10-500 nM, time 6-48 hrs
HCT-116 [28] = assay: Induction of apoptosis in human HCT-116 cells assessed as downregulation of NUP107 gene expression at 10 to 500 nM incubated for 6 to 48 hrs by RNA analysis; assay type: functional, cell-based; conditions: dose 10-500 nM, time 6-48 hrs
HCT-116 [29] = assay: Induction of apoptosis in human HCT-116 cells assessed as downregulation of NUP85 gene expression at 10 to 500 nM incubated for 6 to 48 hrs by RNA analysis; assay type: functional, cell-based; conditions: dose 10-500 nM, time 6-48 hrs
HCT-116 [30] = assay: Induction of apoptosis in human HCT-116 cells assessed as downregulation of NUP155 gene expression at 10 to 500 nM incubated for 6 to 48 hrs by RNA analysis; assay type: functional, cell-based; conditions: dose 10-500 nM, time 6-48 hrs
HCT-116 [31] = assay: Induction of apoptosis in human HCT-116 cells assessed as modulation of TOP3B mRNA expression at 10 to 500 nM incubated for 6 to 48 hrs by RNA analysis; assay type: functional, cell-based; conditions: dose 10-500 nM, time 6-48 hrs
HCT-116 [32] = assay: Induction of apoptosis in human HCT-116 cells assessed as downregulation of GART gene expression at 10 to 500 nM incubated for 6 to 48 hrs by RNA analysis; assay type: functional, cell-based; conditions: dose 10-500 nM, time 6-48 hrs
PDX14244 = assay: Antitumor activity against human PDX14244 cells xenografted in SCID mouse model assessed as reduction in tumor volume at 8 mg/kg,po administrated once per week for 3 weeks; assay type: functional, organism-based

SMILES | Activity (HCT-116 [1]) | IC50 (A549) | Activity (HCT-116 [2]) | Activity (HCT-116 [3]) | Activity (HCT-116 [4]) | Activity (HCT-116 [5]) | Activity (HCT-116 [6]) | Activity (HCT-116 [7]) | IC50 (HCT-116 [8]) | Activity (HCT-116 [10]) | Activity (HCT-116 [11]) | Activity (HCT-116 [12]) | Activity (HCT-116 [14]) | Activity (HCT-116 [15]) | Activity (HCT-116 [16]) | Activity (HCT-116 [17]) | Activity (HCT-116 [18]) | Activity (HCT-116 [19]) | Activity (HCT-116 [20]) | Activity (HCT-116 [21]) | further results
CC[C@@]1(O)C(=O)OCc2c1cc1n(c2=O)Cc2cc3cc4c(cc3nc2-1)OCO4 | Active | 50.7 nM | Active | Active | Active | Active | Active | Active | 23.5 nM | Active | Active | Active | Active | Active | Active | Active | Active | Dose-Dependent Effect | Active | Active | Activity (HCT-116 [9]): Active; Activity (HCT-116 [13]): Active; Activity (HCT-116 [22]): Active; Activity (HCT-116 [23]): Active; Activity (HCT-116 [24]): Active; Activity (HCT-116 [25]): Active; Activity (HCT-116 [26]): Active; Activity (HCT-116 [27]): Active; Activity (HCT-116 [28]): Active; Activity (HCT-116 [29]): Active; Activity (HCT-116 [30]): Active; Activity (HCT-116 [31]): Active; Activity (HCT-116 [32]): Active
CC[C@@]1(O)C(=O)OCc2c1cc1n(c2=O)Cc2c-1nc1cc3c(cc1c2-c1cc(OC)cc(OC)c1)OCO3 | Active | 28.5 nM | Active | Active | Active | Active | Active | Active | 99.4 nM | Active | Active | Active | Active | Active | Active | Active | Active | Dose-Dependent Effect | Active | Active | Activity (HCT-116 [22]): Active; Activity (HCT-116 [23]): Active; Activity (HCT-116 [24]): Active; Activity (HCT-116 [25]): Active; Activity (HCT-116 [26]): Active; Activity (HCT-116 [27]): Active; Activity (HCT-116 [28]): Active; Activity (HCT-116 [29]): Active; Activity (HCT-116 [30]): Active; Activity (HCT-116 [31]): Active; Activity (HCT-116 [32]): Active; Activity (PDX14244): Active
